According to patent US20060222628A1, “Gallium complexes of 3-hydroxy-4-pyrones to treat infection by intracellular prokaryotes and DNA viruses” (priority 1999, published 2006):
One block for each compound: values may come before it.

Assays:
[1] = in vivo, po; cited from earlier work
[2] = assay type: physicochemical
Method: The material forms white to pale beige monoclinic crystals with unit cell parameters of about a=7.899(1)Å, b=8.765(1)Å, c=31.626(2)Å, beta=103.253(7) degrees, V=2131 Å^3, based on powder x-ray diffraction analysis. The solubility of this compound is measured as about 5 millimolar in distilled deionized water at 23° C. Crystallization from other solvents or under other conditions may produce other crystal structures. Under some conditions, water or other solvents may also be incorporated into the structure. […] About 5.5 grams of powdered anhydrous sodium carbonate are added, and stirring continues for additional 12 minutes. […] The remaining crystalline solid is the 3:1 maltol gallium composition. […] The solubility of this composition is measured as about 24 millimolar in distilled deionized water at 23° C.

HIV-1 = conditions: at subinhibitory concentrations; cited from earlier work
[3] = tested on: reverse transcriptase in Rauscher murine leukemia virus; conditions: in vitro; cited from earlier work

SMILES: CCc1occc(=O)c1O [ethyl maltol, 3-hydroxy-2-ethyl-4-pyrone]
Toxicity when taken orally [1]: very low toxicities

SMILES: Cc1occc(=O)c1O [maltol, 3-hydroxy-2-methyl-4-pyrone]
Toxicity when taken orally [1]: very low toxicities

Solubility [2]: about 5 millimolar
SMILES: CCc1occc(=O)c1[O-].CCc1occc(=O)c1[O-].CCc1occc(=O)c1[O-].[Ga+3] [gallium ethyl maltolate, tris(3-hydroxy-2-ethyl-4H-pyran-4-onato)gallium]

SMILES: O=[N+]([O-])[O-].O=[N+]([O-])[O-].O=[N+]([O-])[O-].[Ga+3] [gallium nitrate]
Effect on inhibitory effects of nucleoside analogs (HIV-1): potentiated the inhibitory effects of zidovudine, azidothymidine (AZT), dideoxy inosine (ddI), and dideoxy cytosine (ddC)

SMILES: [Ga] [Gallium]
Inhibition of reverse transcriptase [3]: shown in vitro to inhibit the enzyme reverse transcriptase
